# Experiments:
# advanced solid tumors = assay: Antitumor response; type: in vivo, human
# [1] = Phase I dose escalation: safety, tolerability, DLT and MTD
# c-Kit = conditions: intact cellular systems; cited from earlier work
# [2] = in vivo
# [3] = ovarian cancer patient, 400 mg twice a day
# [4] = second ovarian cancer patient, 500 mg twice a day
smiles,measurement,setting,value
O=C(Nc1ccc(OC(F)(F)F)cc1)c1sccc1NCc1ccnc2ccccc12 [OSI-930],RECIST PRs,advanced solid tumors; 19 evaluable patients with GIST,no RECIST PRs
same,RECIST partial or complete responses,advanced solid tumors; once a day cohorts,No RECIST partial or complete responses
same,Patients with stable disease as best response,"advanced solid tumors; once a day cohorts, 50 to 1,600 mg",4 of 12
same,Time of confirmed RECIST PR,advanced solid tumors; [3],24 weeks
same,Time of disease progression,advanced solid tumors; [3],65 weeks
same,Time to GCIG CA125 response,advanced solid tumors; [3],15 weeks
same,Median duration of stable disease,advanced solid tumors; patients with GIST,126 days
same,Further duration of GCIG CA125 response,advanced solid tumors; [4],12 weeks
same,Time to GCIG CA125 response,advanced solid tumors; [4],12 weeks
same,Patients who achieved stable disease,advanced solid tumors; twice a day cohort,48%
same,"Treatment-related AEs (number): Abdominal pain, G1–2","[1]; 1,600 mg once a day (n = 3)",1
same,"Treatment-related AEs (number): Abdominal pain, G3","[1]; 1,600 mg once a day (n = 3)",0
same,"Treatment-related AEs (number): Anorexia, G1–2","[1]; 1,600 mg once a day (n = 3)",2
same,"Treatment-related AEs (number): Anorexia, G3","[1]; 1,600 mg once a day (n = 3)",0
same,"Treatment-related AEs (number): Diarrhea, G1–2","[1]; 1,600 mg once a day (n = 3)",0
same,"Treatment-related AEs (number): Diarrhea, G3","[1]; 1,600 mg once a day (n = 3)",0
same,"Treatment-related AEs (number): Dry skin, G1–2","[1]; 1,600 mg once a day (n = 3)",0
same,"Treatment-related AEs (number): Dry skin, G3","[1]; 1,600 mg once a day (n = 3)",0
same,"Treatment-related AEs (number): Dyspepsia, G1–2","[1]; 1,600 mg once a day (n = 3)",0
same,"Treatment-related AEs (number): Dyspepsia, G3","[1]; 1,600 mg once a day (n = 3)",0
same,"Treatment-related AEs (number): Fatigue, G1–2","[1]; 1,600 mg once a day (n = 3)",1
same,"Treatment-related AEs (number): Fatigue, G3","[1]; 1,600 mg once a day (n = 3)",0
same,"Treatment-related AEs (number): Flatulence, G1–2","[1]; 1,600 mg once a day (n = 3)",0
same,"Treatment-related AEs (number): Flatulence, G3","[1]; 1,600 mg once a day (n = 3)",0
same,"Treatment-related AEs (number): Hair color changes, G1–2","[1]; 1,600 mg once a day (n = 3)",0
same,"Treatment-related AEs (number): Hair color changes, G3","[1]; 1,600 mg once a day (n = 3)",0
same,"Treatment-related AEs (number): Headache, G1–2","[1]; 1,600 mg once a day (n = 3)",0
same,"Treatment-related AEs (number): Headache, G3","[1]; 1,600 mg once a day (n = 3)",0
same,"Treatment-related AEs (number): Hypertension, G1–2","[1]; 1,600 mg once a day (n = 3)",0
same,"Treatment-related AEs (number): Hypertension, G3","[1]; 1,600 mg once a day (n = 3)",0
same,"Treatment-related AEs (number): Muscle spasms, G1–2","[1]; 1,600 mg once a day (n = 3)",0
same,"Treatment-related AEs (number): Muscle spasms, G3","[1]; 1,600 mg once a day (n = 3)",0
same,"Treatment-related AEs (number): Myalgia, G1–2","[1]; 1,600 mg once a day (n = 3)",0
same,"Treatment-related AEs (number): Myalgia, G3","[1]; 1,600 mg once a day (n = 3)",0
same,"Treatment-related AEs (number): Nausea, G1–2","[1]; 1,600 mg once a day (n = 3)",1
same,"Treatment-related AEs (number): Nausea, G3","[1]; 1,600 mg once a day (n = 3)",0
same,"Treatment-related AEs (number): Palmar-plantar erythema, G1–2","[1]; 1,600 mg once a day (n = 3)",0
same,"Treatment-related AEs (number): Palmar-plantar erythema, G3","[1]; 1,600 mg once a day (n = 3)",0
same,"Treatment-related AEs (number): Vomiting, G1–2","[1]; 1,600 mg once a day (n = 3)",0
same,"Treatment-related AEs (number): Vomiting, G3","[1]; 1,600 mg once a day (n = 3)",0
same,DLTs observed,"[1]; once a day dosing schedule, 50 to 1,600 mg",no DLTs
same,Treatment-related deaths,[1]; twice a day cohorts,no treatment-related deaths
same,Potency for wild-type versus mutant c-Kit,c-Kit,equal potencies
same,Cases of grade 2 proteinuria,[2]; human,1 case
same,Grade 3 hypertension (number),[2]; human,1
same,Patients requiring a dose modification,[2]; human,33 patients
same,Patients who developed grade 1 to 2 PPE,[2]; human,15%
same,Patients with adverse events considered related to OSI-930,[2]; human,58%
same,Patients with anorexia (reported adverse events),[2]; human,6
same,Patients with at least 1 grade 3 adverse event of any cause,[2]; human,50%
same,Patients with fatigue (reported adverse events),[2]; human,8
same,Patients with grade 1 to 2 drug-related fatigue,[2]; human,3 patients
same,Patients with grade 1 to 2 drug-related nausea and anorexia,[2]; human,2 patients
same,Patients with grade 3 PPE,[2]; human,1 patient
same,Patients with nausea (reported adverse events),[2]; human,5
same,Patients with treatment discontinued for toxicity,[2]; human,1 patient
same,Treatment-related adverse events greater than grade 2,[2]; human,no treatment-related adverse events greater than grade 2
same,Treatment-related fatigue,[2]; human,50%
same,Treatment-related grade 3 fatigue,[2]; human,6%
same,Treatment-related grade 3 hypertension,[2]; human,6%
same,Treatment-related grade 3 nausea,[2]; human,6%
same,Treatment-related grade 3 skin toxicity,[2]; human,6%
same,Patients with grade 1 to 2 drug-related skin and subcutaneous disorders,"[2]; human, sc",3 patients
same,Reports of mucositis,[2],no reports of mucositis

# — paper PMC3880798 (Clinical cancer research : an official journal of the …, 2013)
